pIC50: −log10 of the molar value. Like-named read-outs stand apart in the source and are kept apart here.
Assays:
[1] = biological target: T1, human cloned 5-HT2A receptor, expressed in L929 cells (Homo sapiens, UniProt P28223); experiment: In vitro radioligand binding affinity for 5-HT2A receptor ([125I]R91150); settings: for IC50 / h-5HT2A: human cloned 5-HT2A receptor in L929 cells, [125I]R91150; for IC50: read-out: h-5HT2A (converted)
T1 construct: expressed in transfected cells; host or cells: L929 cells
Protocol: The interaction of the compounds of Formula (I) with 5-HT2A and 5-HT2C receptors was assessed in in vitro radioligand binding experiments. In general, a low concentration of a radioligand with a high binding affinity for the receptor is incubated with a sample of a tissue preparation enriched in a particular receptor (1 to 5 mg tissue) in a buffered medium (0.2 to 5 ml). During the incubation, the radioligands bind to the receptor. When equilibrium of binding is reached, the receptor bound radioactivity is separated from the non-bound radioactivity, and the receptor bound activity is counted. The interaction of the test compounds with the receptors is assessed in competition binding experiments. Various concentrations of the test compound are added to the incubation mixture containing the tissue preparation and the radioligand. Binding of the radioligand will be inhibited by the test compound in proportion to its binding affinity and its concentration. The affinities of the compounds for the 5-HT2 receptors were measured by means of radioligand binding studies conducted with: (a) human cloned 5-HT2A receptor, expressed in L929 cells using [^125I]R91150 as radioligand and (b) human cloned 5-HT2C receptor, expressed in CHO cells using [^3H]mesulergine as radioligand.

[2] = biological target: T2, human cloned 5-HT2C receptor, expressed in CHO cells (Homo sapiens, UniProt P28335); experiment: In vitro radioligand binding affinity for 5-HT2C receptor ([3H]mesulergine); settings: for IC50 / h-5HT2C: human cloned 5-HT2C receptor in CHO cells, [3H]mesulergine; for IC50: read-out: h-5HT2C (converted)
T2 construct: expressed in transfected cells; host or cells: CHO cells
T2 sequence (P28335 33-458): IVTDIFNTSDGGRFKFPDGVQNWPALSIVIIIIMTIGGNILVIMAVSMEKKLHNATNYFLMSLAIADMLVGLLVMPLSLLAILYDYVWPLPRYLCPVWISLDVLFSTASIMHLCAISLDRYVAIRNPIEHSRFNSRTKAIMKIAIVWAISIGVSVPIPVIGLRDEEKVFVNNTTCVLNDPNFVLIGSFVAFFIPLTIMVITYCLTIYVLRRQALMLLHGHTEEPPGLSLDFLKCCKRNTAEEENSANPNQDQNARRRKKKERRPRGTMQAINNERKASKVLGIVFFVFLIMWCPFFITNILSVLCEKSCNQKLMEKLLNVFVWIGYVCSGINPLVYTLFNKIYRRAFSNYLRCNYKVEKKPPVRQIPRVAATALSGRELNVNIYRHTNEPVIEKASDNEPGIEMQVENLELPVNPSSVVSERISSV
Protocol: The interaction of the compounds of Formula (I) with 5-HT2A and 5-HT2C receptors was assessed in in vitro radioligand binding experiments. […] During the incubation, the radioligands bind to the receptor. When equilibrium of binding is reached, the receptor bound radioactivity is separated from the non-bound radioactivity, and the receptor bound activity is counted. The interaction of the test compounds with the receptors is assessed in competition binding experiments. Various concentrations of the test compound are added to the incubation mixture containing the tissue preparation and the radioligand. Binding of the radioligand will be inhibited by the test compound in proportion to its binding affinity and its concentration.

[3] = biological target: T3, human Dopamine D2L receptor (Homo sapiens, UniProt P14416); experiment: In vitro binding affinity for human D2L receptor ([3H]Spiperone); settings: for IC50 / h-D2L: human D2L receptor-transfected CHO cell membranes, [3H]Spiperone; for IC50: read-out: h-D2L (converted)
T3 construct: expressed in transfected cells; host or cells: CHO cells (frozen membranes)
Protocol: Frozen membranes of human Dopamine D2L receptor-transfected CHO cells were thawed, briefly homogenised using an Ultra-Turrax T25 homogeniser and diluted in Tris-HCl assay buffer containing NaCl, CaCl2, MgCl2, KCl (50, 120, 2, 1, and 5 mM respectively, adjusted to pH 7.7 with HCl) to an appropriate protein concentration optimised for specific and non-specific binding. Radioligand [^3H]Spiperone (NEN, specific activity ˜70 Ci/mmol) was diluted in assay buffer at a concentration of 2 nmol/L. Prepared radioligand (50 μl), along with 50 μl of either the 10% DMSO control, Butaclamol (10-6 mol/l final concentration), or compound of interest, was then incubated (30 min, 37° C.) with 400 μl of the prepared membrane solution. Membrane-bound activity was filtered through a Packard Filtermate harvester onto GF/B Unifilterplates and washed with ice-cold Tris-HCl buffer (50 mM; pH 7.7; 6×0.5 ml). Filters were allowed to dry before adding scintillation fluid and counting in a Topcount scintillation counter. Percentage specific bound and competition binding curves were calculated using S-Plus software (Insightful).

NET = biological target: T4, NET (Rattus norvegicus, UniProt Q9WTR4); experiment: In vitro determination of NET reuptake inhibition ([3H]Nixosetine binding, rat brain cortex membranes)
T4 construct: Cortex from rat brain was collected and homogenised; from tissue; host or cells: rat brain cortex membranes
Protocol: Cortex from rat brain was collected and homogenised using an Ultra-Turrax T25 and a Dual homogeniser in ice-cold homogenising buffer containing Tris, NaCl and KCl (50 mM, 120 mM and 5 mM, respectively, pH 7.4) prior to dilution to an appropriate protein concentration optimised for specific and non-specific binding. […] Membrane-bound activity was detected by filtration through a Packard Filtermate harvester onto GF/B Unifilterplates, washed with ice-cold Tris-HCl buffer, containing NaCl and KCl (50 mM, 120 mM and 4 mM; pH 7.4; 6×0.5 ml). Filters were allowed to dry for 24 h before adding scintillation fluid. Scintillation fluid was allowed to saturate filters for 24 h before counting in a Topcount scintillation counter. Percentage specific bound and competition binding curves were calculated using S-Plus software (Insightful).

T4 sequence (Q9WTR4 1-597): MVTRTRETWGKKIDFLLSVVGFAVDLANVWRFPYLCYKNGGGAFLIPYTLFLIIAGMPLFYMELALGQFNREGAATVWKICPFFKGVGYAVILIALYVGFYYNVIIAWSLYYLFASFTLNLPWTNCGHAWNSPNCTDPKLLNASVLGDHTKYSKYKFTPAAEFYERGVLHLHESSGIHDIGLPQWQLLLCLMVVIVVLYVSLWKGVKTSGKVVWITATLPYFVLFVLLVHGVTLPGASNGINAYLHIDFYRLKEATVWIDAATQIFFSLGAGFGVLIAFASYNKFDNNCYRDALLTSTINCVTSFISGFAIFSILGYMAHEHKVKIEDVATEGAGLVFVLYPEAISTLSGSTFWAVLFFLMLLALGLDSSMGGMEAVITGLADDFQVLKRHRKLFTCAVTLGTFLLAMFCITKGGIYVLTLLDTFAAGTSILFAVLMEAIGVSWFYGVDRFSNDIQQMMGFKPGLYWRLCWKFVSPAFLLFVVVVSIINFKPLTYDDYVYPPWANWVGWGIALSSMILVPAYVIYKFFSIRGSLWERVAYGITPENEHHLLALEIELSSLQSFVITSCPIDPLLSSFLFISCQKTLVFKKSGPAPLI
T3 sequence (P14416 whole entry): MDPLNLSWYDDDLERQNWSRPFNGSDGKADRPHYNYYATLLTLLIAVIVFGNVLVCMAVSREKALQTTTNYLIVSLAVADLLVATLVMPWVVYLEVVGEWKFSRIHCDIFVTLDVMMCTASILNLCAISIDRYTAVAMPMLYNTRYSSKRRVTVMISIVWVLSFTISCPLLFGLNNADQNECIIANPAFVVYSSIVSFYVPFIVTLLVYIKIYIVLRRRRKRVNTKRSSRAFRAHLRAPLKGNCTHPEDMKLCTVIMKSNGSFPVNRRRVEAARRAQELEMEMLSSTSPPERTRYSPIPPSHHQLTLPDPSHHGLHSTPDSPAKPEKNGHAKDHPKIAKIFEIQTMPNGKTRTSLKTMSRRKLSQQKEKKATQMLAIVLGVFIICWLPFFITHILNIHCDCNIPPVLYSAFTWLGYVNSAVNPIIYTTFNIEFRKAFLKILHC
T1 sequence (P28223 whole entry): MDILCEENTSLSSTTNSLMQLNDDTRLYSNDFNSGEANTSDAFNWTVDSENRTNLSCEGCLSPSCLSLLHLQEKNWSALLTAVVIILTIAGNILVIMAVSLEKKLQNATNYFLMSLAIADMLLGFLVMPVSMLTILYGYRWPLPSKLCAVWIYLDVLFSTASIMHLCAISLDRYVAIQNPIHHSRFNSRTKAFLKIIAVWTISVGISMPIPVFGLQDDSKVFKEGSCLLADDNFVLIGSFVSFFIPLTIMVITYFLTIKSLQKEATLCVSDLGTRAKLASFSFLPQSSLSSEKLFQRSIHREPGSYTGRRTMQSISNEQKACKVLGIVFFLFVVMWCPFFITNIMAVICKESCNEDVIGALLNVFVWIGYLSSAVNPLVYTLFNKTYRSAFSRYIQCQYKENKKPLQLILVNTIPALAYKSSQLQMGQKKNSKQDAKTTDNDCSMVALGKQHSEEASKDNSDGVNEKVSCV

Structure (SMILES) | IC50 [1] [µM] | IC50 [2] [µM] | IC50 [3] [µM] | pIC50 (NET) | h-5HT2A [1] | h-5HT2C [2] | h-D2L [3] | NET Reuptake Inhibition (NET) | pIC50 [1] | pIC50 [2] | pIC50 [3]
CNC[C@H]1C[C@@H]2c3ccccc3Cc3ccc(F)cc3[C@H]2N1C=O [compound 38, (2R,3aR,12bS)-11-fluoro-2-[(methylamino)methyll]-3,3a,8,12b-tetrahydrodibenzo-[3,4:6,7]cyclohepta[1,2-b]pyrrole-1 (2H)-carbaldehyde] | 0.631 | 0.186 | 7.08 | 6.31 |  |  |  |  |  |  | 
CC(=O)N1[C@@H](CN(C)C)C[C@@H]2c3ccccc3Cc3ccc(F)cc3[C@H]21 [36b, [(2R,3aR, 1 2bS)-1-acetyl-11-fluoro-1,2,3,3a,8,12b-hexahydrodibenzo[3,4:6,7]cyclohepta[1,2-b]pyrrol-2-yl]-N,N-dimethylmethanamine] | > 1 | > 1 | > 1 | 5.41 |  |  |  |  |  |  | 
CN1C[C@@H]2C[C@@H]3c4ccccc4Cc4ccc(F)cc4[C@H]3N2C1 [compound 1, (4aS,13bR,14aS)-6-fluoro-2-methyl-1,2,3,4a,9,13b,14,14a-octahydrodibenzo-[3′,4′:6′,7′]cyclohepta[1′,2′:4,5]pyrrolo[1,2-c]imidazole] | 0.115 | 0.151 | 2.24 | 6.94 |  |  |  |  |  |  | 
COC(=O)N1[C@@H](CN(C)C)C[C@@H]2c3ccccc3Cc3ccc(F)cc3[C@H]21 [36a, Methyl (2R,3aR, 12bS)-2-[(dimethylamino)methyl]-11-fluoro-3,3a,8,12b-tetrahydro dibenzo[3,4:6,7]cyclohepta[1,2-b]pyrrole-1(2H)-carboxylate] |  |  |  |  | <6 | <6 | <6 | 6.16 |  |  | 
CN(C)C[C@@H]1C[C@@H]2c3ccccc3Cc3ccc(F)cc3[C@H]2[S@@+]1[O-] [compound 26, [(2S,3aR,12bS)-11-fluoro-1-oxido-3,3a,8,12b-tetrahydro-2H-dibenzo[3,4:6,7]-cyclohepta[1,2-b]thien-2-yl]-N,N-dimethylmethanamine] | > 10 | > 10 | > 10 | < 5.00 |  |  |  |  |  |  | 
CSC1=NC[C@H]2C[C@@H]3c4ccccc4Cc4ccc(F)cc4[C@H]3N12 [compound 9, (4aS,13bR,14aR)-6-fluoro-3-(methylsulfanyl)-1,4a,9,13b,14,14a-hexahydrodibenzo-[3′,4′:6′,7′]cyclohepta[1′,2′:4,5]pyrrolo[1,2-c]imidazole] | > 1 | > 1 | > 1 | 5.40 |  |  |  |  |  |  | 
CN(C)C[C@H]1C[C@@H]2c3ccccc3Cc3ccc(F)cc3[C@H]2S1 [compound 23, [(2R,3aR,12bS)-11-fluoro-3,3a,8,12b-tetrahydro-2H-dibenzo[3,4:6,7]cyclohepta[1,2-b]thien-2-yl]-N,N-dimethylmethanamine] | 0.661 | 0.229 | 5.01 | 7.55 |  |  |  |  |  |  | 
CN1C[C@@H]2C[C@@H]3c4ccccc4Cc4ccc(F)cc4[C@H]3N2C1=O [compound 16, (4aS,13bR,14aS)-6-fluoro-2-methyl-1,4a,9,13b,14,14a-hexahydrodibenzo[3′,4′:6′,7′]-cyclohepta[1′,2′:4,5]pyrrolo[1,2-c]imidazol-3(2H)-one] | > 10 | > 10 | > 10 | < 5.00 |  |  |  |  |  |  | 
O=C1NC[C@@H]2C[C@@H]3c4ccccc4Cc4ccc(F)cc4[C@H]3N12 [compound 15, (4aS,13bR,14aS)-6-fluoro-1,4a,9,13b,14,14a-hexahydrodibenzo[3′,4′:6′,7′]cyclohepta-[1′,2′:4,5]pyrrolo[1,2-c]imidazol-3(2H)-one] | 8.32 | 2.34 | > 10 | 5.62 |  |  |  |  |  |  | 
CNC[C@H]1CC[C@@H]2c3ccccc3Cc3ccc(F)cc3[C@H]2O1 [compound 46, [(2R,4aR,13bS)-12-fluoro-2,3,4,4a,9,13b-hexahydrodibenzo[3,4:6,7]cyclohepta-[1,2-b]pyran-2-yl]-N-methylmethanamine] | 0.0138 | 0.00589 | 6.31 | 6.40 |  |  |  |  |  |  | 
CN(C)C[C@H]1C[C@@H]2c3ccccc3Cc3ccc(F)cc3[C@H]2N1 [37a, [(2R,3aR,12bS)-11-fluoro-1,2,3,3a,8,12b-hexahydrodibenzo[3,4:6,7]cyclohepta[1,2-b]-pyrrol-2-yl]-N,N-dimethylmethanamine] | 0.0447 | 0.0501 | 0.355 | 8.10 |  |  |  |  |  |  | 
COCCN1[C@@H](CN(C)C)C[C@@H]2c3ccccc3Cc3ccc(F)cc3[C@H]21 [compound 40, [(2R,3aR,12bS)-11-Fluoro-1-(2-methoxyethyl)-1,2,3,3a,8,12b-hexahydrodibenzo-[3,4:6,7]-cyclohepta[1,2-b]pyrrol-2-yl]-N,N-dimethylmethanamine] | 0.372 | 0.263 | > 1 | 6.32 |  |  |  |  |  |  | 
CN(C)C[C@H]1C[C@@H]2c3ccccc3Oc3ccc(F)cc3[C@H]2N1 [compound 17, [(2R,3aR,12bS)-11-fluoro-2,3,3a,12b-tetrahydro-lH-dibenzo[2,3 :6,7]oxepino[4,5-b]pyrrol-2-yl]-N,N-dimethylmethanamine] | 0.575 | 0.501 | 2.34 | 8.13 |  |  |  |  |  |  | 
Fc1ccc2c(c1)[C@@H]1[C@H](C[C@H]3CNC(=S)N31)c1ccccc1C2 [compound 3, (4aS,13bR,14aS)-6-fluoro-1,4a,9,13b,14,14a-hexahydrodibenzo-[3′,4′:6′,7′]cyclohepta-[1′,2′:4,5]pyrrolo[1,2-c]imidazole-3(2H)-thione] | > 1 | 0.24 | > 1 |  |  |  |  | 5.24 |  |  | 
CN(C)C[C@H]1C[C@@H]2c3ccccc3Cc3ccc(F)cc3[C@H]2N1C=O [36c] |  |  |  |  | 6.26 | 7.11 | 5.31 | 6.65 |  |  | 
CN1CCN2[C@H](C[C@@H]3c4ccccc4Cc4ccc(F)cc4[C@H]32)C1 [14a, (5aS,14bR,15a,R)-7-fluoro-2-methyl-1,3,4,5a,10,14b,15,1 5a-octahydro-2H-dibenzo-[3′,4′:6′,7′]cyclohepta[1′,2′:4,5]pyrrolo[1,2-a]pyrazine] |  |  |  |  |  |  |  | 5.50 | 8.90 | 9.05 | 8.81

From patent US20090023721A1, “Novel Substituted Tetracyclic Tetrahydrofuran, Pyrrolidine and Tetrahydrothiophene Derivatives and Their Use as a Medicament” (priority 2005, published 2009)
